Several values for one entry are separate records, joined by “and”; a condition that tells them apart may be missing. Equal values may be shown once. Read-outs that look alike come from different tables or passages of the source. Residues, ends and D or L forms follow the SMILES beside them.
Tests used:
[1] = Viability by trypan blue exclusion, Daudi cells; type: cell-based, human; conditions: 100 μM
Description: (§1) EL-4 lymphoma cells were suspended in RPMI 1640 at 5,000,000/ml with 500,000 cells per well. Various concentrations of cecropin SB-37 and Shiva 1 were added and the wells incubated at 37° C. in a 5% CO2 atmosphere for one hour. Viability was determined by microscopic observation for trypan blue exclusion.
(§2) The procedure of Example 5 was repeated with 50 and 200 μM cecropin SB-37 using SP2 mouse lymphoma cells, KG-1 human leukemia cells, Daudi human Burkitt's lymphoma cells, non-adherent normal human lymphocytes and adherent 3T3 […] fibroblasts. Viability was determined by microscopic observation for trypan blue exclusion.
(§3) This procedure was repeated with 100 μM cecropin SB-37 using non-adherent normal human lymphocytes, Daudi human Burkitt's lymphoma cells, KG-1 human leukemia cells, U937 human monocytic leukemia cells, and SP2 murine myeloma cells, and determining viability by the trypan blue exclusion method at 15, 30 and 60 minutes following addition of the peptide.

[2] = tested on: Daudi human Burkitt's lymphoma cells; experiment: Viability by trypan blue exclusion, Daudi cells; type: cell-based
Description: as §1, §2, §3

[3] = Viability by trypan blue exclusion, SP2 cells; type: cell-based, mouse; conditions: 100 μM
Description: as §1, §2, §3

SP2 mouse lymphoma cells = experiment: Viability by trypan blue exclusion, SP2 cells; type: cell-based
Description: as §1, §2, §3

[4] = tested on: Erwinia caratovora subsp. carotova; experiment: Plant pathogen LD50 in cecropin SB-37/lysozyme; type: cell-based; conditions: incubation at 30° C.
[5] = tested on: Xanthomonas campestris pv. campestris; experiment: Plant pathogen LD50 in cecropin SB-37/lysozyme; type: cell-based; conditions: incubation at 30° C.
[6] = EL-4 cell viability by trypan blue exclusion; type: cell-based; conditions: one hour, 95% at 0 μM
Description: as §1

[7] = tested on: T. cruzi intracellular amastigotes in Vero cells; experiment: In vitro effect on T. cruzi intracellular amastigotes in Vero cells; type: cell-based, Trypanosoma cruzi; conditions: one hour period, relative to no peptide
Description: Vero cells at 10^5 cells/ml in MEM-FBS were mixed with Trypanosoma Cruzi in the trypomastigote stage at 10^5 cells/ml in the same medium at a 1:1 ratio of Vero cells to trypomastigotes. The mixture of Vero cells and trypomastigotes was cultured at 37° C. in a 5% CO2 atmosphere in microscope slide chambers. At 24 hours, cecropin SB-37 was added to the chambers, except for a set of controls, at a final concentration of 100 μM. […]

[8] = S. intermedius 19930 viability in lytic peptide/lysozyme; conditions: Viability (%), lysozyme at ten times
[9] = tested on: Pseudomonas syringae pv. tabaci; experiment: Plant pathogen LD50 in cecropin SB-37/lysozyme; type: cell-based; conditions: incubation at 30° C.
[10] = Viability by trypan blue exclusion, U937 cells; type: cell-based, human
Description: as §1, §3

[11] = tested on: adherent 3T3 human fibroblasts; experiment: Viability by trypan blue exclusion, 3T3 fibroblasts; type: cell-based
[12] = tested on: non-adherent normal human lymphocytes; experiment: Viability by trypan blue exclusion, normal lymphocytes; type: cell-based
Description: as §1, §2, §3

[13] = as above; type: cell-based, human; conditions: 100 μM
Description: as §1, §2, §3

[14] = In vivo screening on mice; design: species or system BALB/C mice; conditions: for WBC Count: 110 mg/kg per day i.m. for 6 days, Mouse 1, 2, 3
Description: Nine BALB/C mice, 4 to 5 weeks of age, maintained on commercial rodent ration fed ad libidum and in general good health were each inoculated with 1.76 mg/day of cecropin SB-37 in PBS intramuscularly for 4 consecutive days. No other change was made in diet or conditions. […] At the end of the fourth day, three were sacrificed and examined. After 30 days, three were given an additional 1.76 mg of cecropin SB-37 each.
The remaining mice were all sacrificed 7 days after the last inoculation.
Following the above procedure, three BALB/C mice were given 110 mg/kg of body weight per day of cecropin SB-37 injected intramuscularly in balanced salt solution for 6 days. Ten days after the last inoculation, the mice were again injected intramuscularly with 110 mg/kg of body weight with cecropin SB-37. […] All three mice were sacrificed 7 days after the final inoculation and tissues were examined.

[15] = Viability by trypan blue exclusion, KG-1 cells; type: cell-based, human; conditions: 100 μM
Description: as §1, §2, §3

[16] = tested on: KG-1 human leukemia cells; experiment: Viability by trypan blue exclusion, KG-1 cells; type: cell-based
Description: as §1, §2, §3

`CC[C@H](C)[C@H](NC(=O)CNC(=O)[C@H](CC(N)=O)NC(=O)[C@H](CCCNC(=N)N)NC(=O)[C@@H](NC(=O)[C@H](CC(N)=O)NC(=O)[C@H](CCCNC(=N)N)NC(=O)CNC(=O)[C@H](CCSC)NC(=O)[C@H](CCCCN)NC(=O)[C@H](CCC(=O)O)NC(=O)[C@@H](NC(=O)[C@H](CCCCN)NC(=O)[C@H](CCCCN)NC(=O)[C@H](Cc1ccccc1)NC(=O)[C@@H](NC(=O)[C@H](CCCCN)NC(=O)[C@H](Cc1c[nH]c2ccccc12)NC(=O)[C@H](CCCCN)NC(=O)[C@@H]1CCCN1C(=O)[C@@H](N)CCSC)C(C)C)[C@@H](C)CC)[C@@H](C)CC)C(=O)N[C@H](C(=O)N[C@@H](CCCCN)C(=O)N[C@@H](C)C(=O)NCC(=O)N1CCC[C@H]1C(=O)N[C@@H](C)C(=O)N[C@H](C(=O)N[C@@H](C)C(=O)N[C@H](C(=O)N[C@@H](CC(C)C)C(=O)NCC(=O)N[C@@H](CCC(=O)O)C(=O)N[C@@H](C)C(=O)N[C@@H](CCCCN)C(=O)N[C@@H](C)C(=O)N[C@@H](CC(C)C)C(=O)NCC(N)=O)C(C)C)[C@@H](C)CC)C(C)C` [Cecropin SB-37] (H-MPKWKVFKKIEKMGRNIRNGIVKAGPAIAVLGEAKALG-NH2) gave a viability at 100 µM ([1]; 15 min.) of 70%, a viability at 100 µM ([1]; 30 min.) of 70% and a viability at 100 µM ([1]; 60 min.) of 65%. For the same molecule, the “Survival (percent)” value ([2]; 50 μM) was 85%, the “Survival (percent)” value ([2]; 100 μM) was 0% and the viability was 0%. For the same molecule, the viability at 0.01 µM was 100%, the viability at 0.1 µM was 79.4% and the viability at 1 µM was 48.8%. It also gave a viability at 5 µM of 38.5%, a viability at 7.5 µM of 0.7% and a viability at 100 µM ([3]; 15 min.) of 100%. For the same molecule, the viability at 100 µM ([3]; 30 min.) was 40%, the viability at 100 µM ([3]; 60 min.) was 10% and the “Survival (percent)” value (SP2 mouse lymphoma cells; 50 μM) was 20%. The “Survival (percent)” value (SP2 mouse lymphoma cells; 100 μM) was 5%, the LD50 [4] was 1.48 µM and the LD50 [5] was 0.57 µM. It also gave a viability ([6]; 10 μM) of 90%, a viability ([6]; 25 μM) of 90% and a viability ([6]; 50 μM) of 75%. For the same molecule, the viability ([6]; 100 μM) was 20%, the LD50 (Pseudomonas solanacearum) was 64.0 µM and the “LD50 (concentration for 50% reduction in number of infected Vero cells)” value [7] was “about 90 μM”. It also gave a viability at 0.01 µM ([8]; peptide concentration 0.01 μM) of 100%, a viability at 0.1 µM ([8]; peptide concentration 0.1 μM) of 94.7% and a viability at 0.5 µM ([8]; peptide concentration 0.5 μM) of 69.4%. For the same molecule, the viability at 1 µM ([8]; peptide concentration 1.0 μM) was 42.5%, the viability at 5 µM ([8]; peptide concentration 5.0 μM) was 36.1% and the viability ([8]; peptide concentration 10. μM) was 5.6%. It also gave a viability ([8]; peptide concentration 50. μM) of 0%, an LD50 [9] of 5.20 µM and a viability at 100 µM ([10]; 15 min.) of 35%. For the same molecule, the viability at 100 µM ([10]; 30 min.) was 25%, the viability at 100 µM ([10]; 60 min.) was 15% and the “Survival (percent)” value ([11]; 50 μM) was 80%. For the same molecule, the “Survival (percent)” value ([11]; 100 μM) was 80%, the “Survival (percent)” value ([12]; 50 μM) was 100% and the “Survival (percent)” value ([12]; 100 μM) was 30%. It also gave a viability at 100 µM ([13]; 15 min.) of 75%, a viability at 100 µM ([13]; 30 min.) of 80% and a viability at 100 µM ([13]; 60 min.) of 85%. The adverse reactions ([14]; 1.76 mg/day intramuscularly, 4 consecutive days, observed twice daily) was “no adverse reactions were noted”, the “antibody to cecropin SB-37” value ([14]; 1.76 mg/day regimen) was “None of these mice produced detectable levels of antibody” and the “examination of organs and tissues” value ([14]; 1.76 mg/day regimen, sacrificed 7 days after the last inoculation) was “no gross pathological changes were present”. For the same molecule, the “WBC Count” value ([14]; Day 1) was 13 10^3/ml and 9 10^3/ml, the “WBC Count” value ([14]; Day 3) was 14 10^3/ml and 9 10^3/ml and 10 10^3/ml and the “WBC Count” value ([14]; Day 5) was 15 10^3/ml and 19 10^3/ml. For the same molecule, the “WBC Count” value ([14]; Day 8) was 21 10^3/ml, the “WBC Count” value ([14]; Day 11) was 23 10^3/ml and 20 10^3/ml and the adverse effects ([14]; 110 mg/kg per day intramuscularly for 6 days, again ten days later) was “no adverse effects”. For the same molecule, the “cecropin SB-37 antibodies” value ([14]; 110 mg/kg regimen) was “No cecropin SB-37 antibodies were detected”, the examination of tissues ([14]; 110 mg/kg regimen, sacrificed 7 days after the final inoculation) was “enlarged spleens but were otherwise unremarkable” and the adverse reactions ([14]; additional 1.76 mg after 30 days) was “No adverse reactions were noted”. It also gave a viability at 100 µM ([15]; 15 min.) of 50%, a viability at 100 µM ([15]; 30 min.) of 75% and a viability at 100 µM ([15]; 60 min.) of 50%. For the same molecule, the “Survival (percent)” value ([16]; 50 μM) was 95% and the “Survival (percent)” value ([16]; 100 μM) was 0%.

— patent publication US6440935B1, “Inhibition of eucaryotic pathogens and neoplasms and stimulation of fibroblasts and lymphocytes with lytic peptides” (priority 1987, dated 2002)
